Experimental data: patent US20260070906A1, “IMIDAZO[4,5-C]PYRIDINE COMPOUNDS FOR THE TREATMENT OF CANCER” (Hoffmann-La Roche Inc., priority 2023, published 2026)

Columns and labels:
human TLR7 = molecular target: T1, human TLR7 (Homo sapiens, UniProt Q9NYK1); assay: HEK293-Blue-hTLR7 cells assay (NF-κB SEAP reporter); type: cell-based; details: 20 hrs incubation, agonism
T1 construct: host or cells: HEK293-Blue-hTLR7 (HEK293)
T1 sequence (Q9NYK1 27-1049): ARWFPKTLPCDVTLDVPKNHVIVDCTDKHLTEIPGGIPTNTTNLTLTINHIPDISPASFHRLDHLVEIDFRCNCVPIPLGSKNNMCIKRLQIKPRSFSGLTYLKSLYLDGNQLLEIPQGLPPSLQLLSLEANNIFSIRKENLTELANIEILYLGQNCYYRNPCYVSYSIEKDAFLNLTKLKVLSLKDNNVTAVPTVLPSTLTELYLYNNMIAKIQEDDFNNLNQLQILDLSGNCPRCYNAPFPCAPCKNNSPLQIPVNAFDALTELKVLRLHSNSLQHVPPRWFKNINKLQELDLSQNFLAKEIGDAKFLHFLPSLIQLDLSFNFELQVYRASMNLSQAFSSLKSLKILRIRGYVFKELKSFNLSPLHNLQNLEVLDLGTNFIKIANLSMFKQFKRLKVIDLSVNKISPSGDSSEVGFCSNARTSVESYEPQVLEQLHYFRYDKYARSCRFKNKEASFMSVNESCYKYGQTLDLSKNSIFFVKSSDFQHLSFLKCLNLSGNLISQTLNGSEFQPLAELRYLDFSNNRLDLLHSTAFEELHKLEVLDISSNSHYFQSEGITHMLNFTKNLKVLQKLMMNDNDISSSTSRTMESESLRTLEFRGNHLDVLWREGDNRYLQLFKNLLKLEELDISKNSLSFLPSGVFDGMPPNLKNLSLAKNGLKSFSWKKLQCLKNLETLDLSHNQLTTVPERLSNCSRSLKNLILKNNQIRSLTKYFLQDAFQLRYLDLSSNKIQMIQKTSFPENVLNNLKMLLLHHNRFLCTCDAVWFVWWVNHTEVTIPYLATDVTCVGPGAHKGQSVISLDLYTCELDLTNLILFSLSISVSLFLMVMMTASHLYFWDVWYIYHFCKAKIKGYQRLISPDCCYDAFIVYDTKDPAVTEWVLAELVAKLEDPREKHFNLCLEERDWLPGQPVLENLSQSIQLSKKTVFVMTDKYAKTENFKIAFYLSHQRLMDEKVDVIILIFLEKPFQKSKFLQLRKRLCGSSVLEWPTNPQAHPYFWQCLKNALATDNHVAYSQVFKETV
Excerpt: A stable HEK293-Blue-hTLR7 cell line was purchased from InvivoGen (Cat. #: hkb-htlr7, San Diego, California, USA). These cells were designed for studying the stimulation of human TLR7 by monitoring the activation of NF-κB. A SEAP (secreted embryonic alkaline phosphatase) reporter gene was placed under the control of the IFN-β minimal promoter fused to five NF-κB and AP-1-binding sites. The SEAP was induced by activating NF-κB and AP-1 via stimulating HEK-Blue hTLR7 cells with TLR7 ligands. Therefore the reporter expression was regulated by the NF-κB promoter upon stimulation of human TLR7 for 20 hrs. The cell culture supernatant SEAP reporter activity was determined using QUANTI-Blue™ kit (Cat. #: rep-qbl, Invivogen, San Diego, Ca, USA) at a wavelength of 650 nm, a detection medium that turns purple or blue in the presence of alkaline phosphatase.
HEK293-Blue-hTLR7 cells were incubated at a density of 250,000˜450,000 cells/mL in a volume of 180 μL in a 96-well plate in Dulbecco's Modified Eagle's medium (DMEM) containing 4.5 g/L glucose, 100 U/mL penicillin, 100 μg/mL streptomycin, 100 μg/mL Normocin, 1% (V/V) GlutaMAX™, 10% (V/V) heat-inactivated fetal bovine serum for 24 hrs. Then the HEK293-Blue-hTLR-7 cells were incubated with addition of 20 μL test compound in a serial dilution in the presence of final DMSO at 1% and perform incubation under 37° C. in a CO2 incubator for 20 hrs. Then 20 μL of the supernatant from each well was incubated with 180 μL Quanti-blue substrate solution at 37° C. for 1 hours and the absorbance was read at 620-655 nm using a spectrophotometer. The signalling pathway that TLR7 activation leads to downstream NF-κB activation has been widely accepted, and therefore similar reporter assay was also widely used for evaluating TLR7 agonist (Tsuneyasu Kaisho and Takashi Tanaka, Trends in Immunology, Volume 29, Issue 7, July 2008, […]; Hiroaki Hemmi et al, Nature Immunology 3, 196-200 (2002)).

human TLR8 = molecular target: T2, human TLR8 (Homo sapiens, UniProt Q9NR97); assay: HEK293-Blue-hTLR8 cells assay (NF-κB SEAP reporter); type: cell-based; details: 20 hours incubation, agonism
T2 construct: host or cells: HEK293-Blue-hTLR8 (HEK293)
T2 sequence (Q9NR97 27-1041): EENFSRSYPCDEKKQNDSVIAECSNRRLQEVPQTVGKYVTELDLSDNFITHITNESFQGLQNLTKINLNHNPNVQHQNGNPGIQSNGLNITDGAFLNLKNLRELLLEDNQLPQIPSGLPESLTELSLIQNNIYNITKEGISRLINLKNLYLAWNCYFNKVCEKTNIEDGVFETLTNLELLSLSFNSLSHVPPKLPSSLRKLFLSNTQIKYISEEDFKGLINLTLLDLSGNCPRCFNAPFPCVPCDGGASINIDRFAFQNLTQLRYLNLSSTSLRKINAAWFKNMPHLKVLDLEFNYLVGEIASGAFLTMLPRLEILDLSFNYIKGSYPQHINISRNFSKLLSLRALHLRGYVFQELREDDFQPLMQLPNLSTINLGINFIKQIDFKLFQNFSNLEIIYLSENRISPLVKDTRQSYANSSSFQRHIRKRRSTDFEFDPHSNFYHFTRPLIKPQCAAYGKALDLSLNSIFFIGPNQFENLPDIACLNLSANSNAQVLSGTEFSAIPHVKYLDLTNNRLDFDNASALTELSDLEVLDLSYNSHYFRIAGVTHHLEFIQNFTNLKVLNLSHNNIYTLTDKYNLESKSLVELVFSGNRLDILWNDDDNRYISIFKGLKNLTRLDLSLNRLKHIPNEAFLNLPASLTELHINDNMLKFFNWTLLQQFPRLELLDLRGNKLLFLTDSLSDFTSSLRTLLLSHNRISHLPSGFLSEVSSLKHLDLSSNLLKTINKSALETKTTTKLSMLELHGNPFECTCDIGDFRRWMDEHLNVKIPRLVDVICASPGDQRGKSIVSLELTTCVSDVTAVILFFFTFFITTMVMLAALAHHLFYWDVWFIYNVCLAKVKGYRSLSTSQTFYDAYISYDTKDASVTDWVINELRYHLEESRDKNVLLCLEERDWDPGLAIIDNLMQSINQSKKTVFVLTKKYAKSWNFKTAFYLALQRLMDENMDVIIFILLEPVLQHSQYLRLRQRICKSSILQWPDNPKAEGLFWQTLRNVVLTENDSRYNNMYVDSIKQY
Excerpt: A stable HEK293-Blue-hTLR8 cell line was purchased from InvivoGen (Cat. #: hkb-htlr8, San Diego, California, USA). These cells were designed for studying the stimulation of human TLR8 by monitoring the activation of NF-κB. A SEAP (secreted embryonic alkaline phosphatase) reporter gene was placed under the control of the IFN-β minimal promoter fused to five NF-κB and AP-1-binding sites. The SEAP was induced by activating NF-κB and AP-1 via stimulating HEK-Blue hTLR8 cells with TLR8 ligands. Therefore the reporter expression was regulated by the NF-κB promoter upon stimulation of human TLR8. The cell culture supernatant SEAP reporter activity was determined using QUANTI-Blue™ kit (Cat. #: rep-qbl, Invivogen, San Diego, Ca, USA) at a wavelength of 650 nm, a detection medium that turns purple to blue in the presence of alkaline phosphatase.
HEK293-Blue-hTLR8 cells were incubated at a density of 250,000-450,000 cells/mL in a volume of 180 μL in a 96-well plate in Dulbecco's Modified Eagle's medium (DMEM) containing 4.5 g/L glucose, 100 U/mL penicillin, 100 μg/mL streptomycin, 100 μg/mL Normocin, 1% (V/V) GlutaMAX™, 10% (v/v) heat-inactivated fetal bovine serum for 24 hours. Then the HEK293-Blue-hTLR8 cells were incubated with addition of 20 μL test compound in a serial dilution in the presence of final DMSO at 1% and perform incubation under 37° C. in a CO2 incubator for 20 hours. Then 20 μL of the supernatant from each well was incubated with 180 μL Quanti-blue substrate solution at 37° C. for 1 hours and the absorbance was read at 620-655 nm using a spectrophotometer. The signalling pathway that TLR8 activation leads to downstream NF-κB activation has been widely accepted, and therefore similar reporter assay was also widely used for evaluating TLR8 agonist.

| Compound | EC50 (human TLR7) [nM] | EC50 (human TLR8) [nM] |
| --- | --- | --- |
| CCOCc1nc2c(N)nc(C)c(Sc3ccc(CN4CCCC4)cc3O)c2[nH]1 [Example 22, 2-[[4-amino-2-(ethoxymethyl)-6-methyl-1H-imidazo[4,5-c]pyridin-7-yl]sulfanyl]-5-(pyrrolidin-1-ylmethyl)phenol] | 28 | 37 |
| CCOCc1nc2c(N)nc(C)c(Sc3cc(O)c(CN(C)C)cc3C)c2[nH]1 [Example 25, 5-[[4-amino-2-(ethoxymethyl)-6-methyl-1H-imidazo[4,5-c]pyridin-7-yl]sulfanyl]-2-[(dimethylamino)methyl]-4-methyl-phenol] | 33 | 61 |
| CCOCc1nc2c(N)nc(C)c(Sc3ccc(CN(C)C)c(C)c3O)c2[nH]1 [Example 16, 6-[[4-amino-2-(ethoxymethyl)-6-methyl-1H-imidazo[4,5-c]pyridin-7-yl]sulfanyl]-3-[(dimethylamino)methyl]-2-methyl-phenol] | 31 | 22 |
| CCOCc1nc2c(N)nc(C)c(Sc3ccc(CN4CCN(C)CC4)cc3N)c2[nH]1 [Example 27, 7-[2-amino-4-[(4-methylpiperazin-1-yl)methyl]phenyl]sulfanyl-2-(ethoxymethyl)-6-methyl-1H-imidazo[4,5-c]pyridin-4-amine] | 39 | 52 |
| CCOCc1nc2c(N)nc(C)c([Se]c3ccc(CN(C)C)cc3)c2n1CC(C)(C)O [Example 3, 1-[4-amino-7-[4-[(dimethylamino)methyl]phenyl]selanyl-2-(ethoxymethyl)-6-methyl-imidazo[4,5-c]pyridin-1-yl]-2-methyl-propan-2-ol] | 28 | 24 |
| CCOCc1nc2c(N)nc(C)c(Sc3ccc(CN(C)C)c4cn[nH]c34)c2[nH]1 [Example 19, 7-[[4-[(dimethylamino)methyl]-1H-indazol-7-yl]sulfanyl]-2-(ethoxymethyl)-6-methyl-1H-imidazo[4,5-c]pyridin-4-amine] | 48 | 43 |

These reach a lower EC50 (human TLR7). Values come first.

| EC50 (human TLR7) [nM] | EC50 (human TLR8) [nM] | Compound |
| --- | --- | --- |
| 8 | 10 | CCOCc1nc2c(N)nc(C)c(SCCc3ccc(CN(C)C)cc3)c2[nH]1 [Example 10, 7-[2-[4-[(dimethylamino)methyl]phenyl]ethylsulfanyl]-2-(ethoxymethyl)-6-methyl-1H-imidazo[4,5-c]pyridin-4-amine] |
| 10 | 3 | CCOCc1nc2c(N)nc(C)c(Sc3ccc(CN(C)C)c(O)c3)c2n1C [Example 12, 5-[4-amino-2-(ethoxymethyl)-1,6-dimethyl-imidazo[4,5-c]pyridin-7-yl]sulfanyl-2-[(dimethylamino)methyl]phenol] |
| 10 | 44 | CCOCc1nc2c(N)nc(C)c(Sc3ccc(CN4CCN(C)CC4)c(N)c3)c2[nH]1 [Example 28, 7-[3-amino-4-[(4-methylpiperazin-1-yl)methyl]phenyl]sulfanyl-2-(ethoxymethyl)-6-methyl-1H-imidazo[4,5-c]pyridin-4-amine] |
| 24 | 56 | CCOCc1nc2c(N)nc(C)c(Sc3ccc(CN(CC)CC)cc3O)c2[nH]1 [Example 17, 2-[[4-amino-2-(ethoxymethyl)-6-methyl-1H-imidazo[4,5-c]pyridin-7-yl]sulfanyl]-5-(diethylaminomethyl)phenol] |
| 27 | 14 | CCOCc1nc2c(N)nc(C)c(Sc3ccc(CN(C)C)cc3)c2[nH]1 [Example 1, 7-[4-[(dimethylamino)methyl]phenyl]sulfanyl-2-(ethoxymethyl)-6-methyl-1H-imidazo[4,5-c]pyridin-4-amine] |
| 21 | 15 | CCOCc1nc2c(N)nc(C)c(Sc3ccc(CN4CCCC4)cc3N)c2[nH]1 [Example 26, 7-[2-amino-4-(pyrrolidin-1-ylmethyl)phenyl]sulfanyl-2-(ethoxymethyl)-6-methyl-1H-imidazo[4,5-c]pyridin-4-amine] |
| 18 | 4 | CCOCc1nc2c(N)nc(C)c(Sc3ccc(CN(C)C)c(O)c3)c2[nH]1 [Example 11, 5-[[4-amino-2-(ethoxymethyl)-6-methyl-1H-imidazo[4,5-c]pyridin-7-yl]sulfanyl]-2-[(dimethylamino)methyl]phenol] |
